# In the supplement of paper PMC10307832:
# How the values were obtained:
# Assay in all cases: relative viability (nuclei count vs DMSO), 5 days (fraction); higher = more cells survive
# Selisistat + OSI-027 = compound: C1CC(C2=C(C1)C3=C(N2)C=CC(=C3)Cl)C(=O)N [Selisistat] + COc1cccc2cc(-c3nc([C@H]4CC[C@H](C(=O)O)CC4)n4ncnc(N)c34)[nH]c12 [OSI-027] (partner 0.5 µM)
# Summary of the method: (§1)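 Five library-drug doses in √10 steps were combined with a fixed anchor-drug dose, or a single drug was given alone, by pin tool to lung cancer cell lines in 1536-well plates the day after seeding. Nuclei were stained and counted after 5 days. Relative viability is the nuclei count in treated wells over that in vehicle wells, taken as the median of duplicate plates.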
# Serdemetan + Dasatinib = compound: c1ccc2c(CCNc3ccc(Nc4ccncc4)cc3)c[nH]c2c1 [Serdemetan] + Cc1nc(Nc2ncc(C(=O)Nc3c(C)cccc3Cl)s2)cc(N2CCN(CCO)CC2)n1 [Dasatinib] (partner 0.075 µM)
# Summary of the method: as §1
# Serdemetan + Lapatinib = compound: c1ccc2c(CCNc3ccc(Nc4ccncc4)cc3)c[nH]c2c1 [Serdemetan] + CS(=O)(=O)CCNCc1ccc(-c2ccc3ncnc(Nc4ccc(OCc5cccc(F)c5)c(Cl)c4)c3c2)o1 [Lapatinib] (partner 2 µM)
# Summary of the method: as §1
# Selisistat + Pictilisib = compound: C1CC(C2=C(C1)C3=C(N2)C=CC(=C3)Cl)C(=O)N [Selisistat] + CS(=O)(=O)N1CCN(Cc2cc3nc(-c4cccc5[nH]ncc45)nc(N4CCOCC4)c3s2)CC1 [Pictilisib] (partner 1 µM)
# Summary of the method: as §1
Cell Line,relative viability (Selisistat + OSI-027; first compound 0.4 µM),relative viability (Selisistat + OSI-027; first compound 1.265 µM),relative viability (Selisistat + OSI-027; first compound 4 µM),relative viability (Selisistat + OSI-027; first compound 12.65 µM),relative viability (Selisistat + OSI-027; first compound 40 µM),relative viability (Serdemetan + Dasatinib; first compound 0.04 µM),relative viability (Serdemetan + Dasatinib; first compound 0.1265 µM),relative viability (Serdemetan + Dasatinib; first compound 0.4 µM),relative viability (Serdemetan + Dasatinib; first compound 4 µM),relative viability (Serdemetan + Lapatinib; first compound 0.04 µM),relative viability (Serdemetan + Lapatinib; first compound 0.1265 µM),relative viability (Serdemetan + Lapatinib; first compound 0.4 µM),relative viability (Serdemetan + Lapatinib; first compound 1.265 µM),relative viability (Serdemetan + Lapatinib; first compound 4 µM),relative viability (Serdemetan + Dasatinib; first compound 1.265 µM),relative viability (Selisistat + Pictilisib; first compound 0.4 µM),relative viability (Selisistat + Pictilisib; first compound 1.265 µM),relative viability (Selisistat + Pictilisib; first compound 12.65 µM),relative viability (Selisistat + Pictilisib; first compound 40 µM),relative viability (Selisistat + Pictilisib; first compound 4 µM)
NCI-H522,0.744,0.677,0.61,0.756,0.681,0.807,0.844,0.911,0.946,–,–,–,–,–,–,–,–,–,–,–
HCC-15,0.81,0.676,–,0.622,0.618,0.676,0.608,0.562,0.49,0.819,0.847,0.84,0.657,0.637,0.541,0.813,0.775,0.814,0.793,–
A-427,0.455,0.432,0.301,0.421,0.57,0.666,0.653,0.655,0.603,0.996,0.987,1.1,1.02,0.749,0.64,0.625,0.622,0.656,0.73,0.327
NCI-H2228,0.57,0.541,0.484,0.651,0.569,0.44,0.473,0.485,0.184,1.07,1.03,0.984,0.431,0.391,0.188,0.476,0.398,0.551,0.557,0.343
NCI-H1734,0.616,0.636,0.491,0.545,0.685,0.384,0.371,0.402,0.131,0.855,–,0.833,0.0959,0.195,0.117,0.479,0.488,0.486,0.445,0.404
PC-14,0.973,0.783,0.755,0.819,0.931,0.262,0.247,0.115,0.147,0.335,0.3,0.295,0.259,0.251,0.308,0.699,0.66,0.664,0.824,0.729
NCI-H1915,0.678,0.646,0.425,0.605,0.646,0.3,0.316,0.314,0.302,0.967,0.995,1.03,0.955,0.965,0.287,0.913,0.965,0.892,0.95,0.533
NCI-H1666,0.794,0.744,0.841,0.673,0.711,0.797,0.736,0.829,0.663,0.853,0.656,0.613,0.573,0.498,0.597,0.421,0.401,0.423,0.318,0.312
HCC-366,1.01,0.837,0.605,0.889,0.898,0.637,0.472,0.542,0.155,1.07,0.811,0.902,0.0523,0.0553,0.0442,0.098,0.135,0.0936,0.207,0.129
SK-MES-1,0.638,0.668,0.657,0.437,0.646,0.337,0.378,0.327,0.267,0.416,0.503,0.466,0.381,0.387,0.379,0.37,0.309,0.329,0.366,0.315
SW 1573,0.704,0.616,0.664,0.772,0.545,0.452,0.488,0.511,0.217,1.09,1.11,1.05,0.93,0.596,0.396,0.557,0.594,0.419,0.513,0.426
NCI-H661,0.749,0.81,0.744,0.629,0.564,0.856,0.916,0.849,0.564,0.474,0.503,0.572,0.428,0.438,–,0.476,0.478,0.348,0.38,0.343
PC-3 [JPC-3],0.931,0.776,0.739,0.662,0.731,0.973,0.95,1.01,0.941,0.439,0.471,–,0.447,0.465,0.924,0.753,0.749,0.631,0.696,0.449
NCI-H1623,0.421,0.413,0.366,0.46,0.451,0.549,0.628,0.359,0.562,–,–,–,–,–,0.442,–,–,–,–,–
Calu-6,–,–,–,–,–,–,–,–,–,1.13,0.99,0.989,0.887,0.68,–,0.867,0.886,0.872,0.925,0.895
LC-2-ad,0.987,–,0.693,0.85,0.794,0.495,0.634,0.519,0.475,0.916,1,0.954,–,0.913,0.501,0.538,0.424,0.426,0.565,0.333
CAL-12T,0.726,0.535,0.472,0.53,0.694,0.392,0.516,0.429,0.292,–,0.859,–,0.599,0.579,0.456,0.384,0.388,0.6,0.314,–
RERF-LC-KJ,0.742,0.525,0.51,0.532,0.533,0.837,0.788,0.667,0.69,0.757,0.811,0.826,0.8,0.754,0.657,0.6,0.436,0.471,0.48,0.432
